Test [1] concerns Paclitaxel induced pain sensitization in the formalin test of pain. Description: Paclitaxel induced neuropathic sensitization (PINS) in the formalin test of pain. The following applies: for PINS diminished: per os in Tween-80 (5%) suspension, vs Tween-80 (5%) controls. In kind it is in vivo, mice. From the text: NS-DA was synthesized and studied pharmacologically in the early ninety's.

The subject of another test is brain dopamine turnover. The following applies: mice and rats; studies of the early ninety's; cited from earlier work.
The next test deals with locomotion. The following applies: mice and rats; studies of the early ninety's; cited from earlier work.

The values below come from patent US20160367505A1, “PROTOTYPICAL ANALGESIC PROFILE OF N-STEARYL DOPAMINE (NS-DA)” (priority 2015, published 2016).

On to `CCCCCCCCCCCCCCCCCC(=O)NCCc1ccc(O)c(O)c1` [NS-DA], for which the “analgesic effect (decrease)” value was 65% in test [1] (0-5 mn acute pain phase, females); “about 95%” in test [1] (35-40 mn sensitization phase, males and females); 95% in test [1] (55-60 mn sensitization phase, female mice); 58% in test [1] (55-60 mn sensitization phase, males). Besides, the analgesic effect result in test [1] (0-5 mn acute pain phase, male mice) was “not significant”. Also, in test [1] (40 mg/kg ip in Cremophor.EL, 35-40 mn central sensitization phase, 1 hour after administration, vs Cremophor.EL control), the “suppression of PINS” value came out at 94.8%. Besides, the “effect on PINS” value in test [1] (NS-DA 10 mg/kg ip alone, 35-40 mn central sensitization phase) is “inactive”. The “analgesic activity against PINS” value in test [1] (formalin test, mice, general statement) was “high analgesic activity”. Besides, the PINS diminished is reported as 39% in test [1] (1 hour after administration), 62% in test [1] (2 hours after administration) and 76% in test [1] (4 hours after administration). In the test on brain dopamine turnover, the “effect on brain dopamine turnover” value is reported as “decrease of the brain dopamine turnover”. In addition, the effect on locomotion entry in the test with locomotion is “hypomotility”.

Take `CN1CC[C@]23c4c5ccc(O)c4O[C@H]2[C@@H](O)C=C[C@H]3[C@H]1C5` [morphine, reference compound]: the “decrease of PINS” value in test [1] (morphine 3 mg/kg sc alone, 35-40 mn central sensitization phase) is given as 37%.
